Reference: PubChem BioAssay (NCI)
“And” between values parts separate entries of the source, which are not always exact repeats. Identical values can stand only once.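 The compound was tested at five concentrations on cells cultured in 96-well plates, with a 48-hour exposure period. Abbreviation: GI50, concentration required for 50% inhibition of growth. At the TGI there is no net growth.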 Where a SMILES comes first, the peptide text is derived from it. The star is where a group is joined. Trt = c1ccc(C(c2ccccc2)(c2ccccc2)*)cc1; Cbz = O=C(OCc1ccccc1)*

Legend:
Test in all cases: growth of human tumour cells (NCI), 48 h
HOP-62 NSCLC = system: HOP-62 NSCLC
SN12C renal = system: SN12C renal
RPMI-8226 leukemia = system: RPMI-8226 leukemia
MCF7 breast = system: MCF7 breast
EKVX NSCLC = system: EKVX NSCLC
NCI-H23 lung = system: NCI-H23 lung
SW-620 colon = system: SW-620 colon
SF-295 CNS = system: SF-295 CNS
SK-MEL-5 melanoma = system: SK-MEL-5 melanoma
UO-31 renal = system: UO-31 renal

O=S(=O)(O)SCCNCCCCCC1CCCCC1 showed a TGI (HOP-62 NSCLC) of 17.9 µM, a TGI (SN12C renal) of 11.3 µM and a TGI (RPMI-8226 leukemia) of 42.1 µM. It also gave a TGI (MCF7 breast) of 7.32 µM, a TGI (EKVX NSCLC) of 22.9 µM and a TGI (NCI-H23 lung) of 27.5 µM. It also gave a TGI (SW-620 colon) of 21.7 µM, a TGI (SF-295 CNS) of 16.4 µM and a TGI (SK-MEL-5 melanoma) of 31.9 µM. It also gave a TGI (UO-31 renal) of 29.8 µM.
Work on COC(=O)C(CSC(c1ccccc1)(c1ccccc1)c1ccccc1)NC(=O)C(CC(N)=O)NC(=O)OCc1ccccc1 (stereo not drawn) (Cbz-Asn-Cys(Trt)-OMe; configuration not given here) yielded a GI50 (HOP-62 NSCLC) of 3.77 µM, a TGI (HOP-62 NSCLC) of 14.7 µM and a GI50 (SN12C renal) of 3.54 µM. For the same molecule, the TGI (SN12C renal) was 15 µM, the GI50 (RPMI-8226 leukemia) was 2.29 µM and the TGI (RPMI-8226 leukemia) was 5.93 µM. For the same molecule, the GI50 (MCF7 breast) was 4.54 µM, the TGI (MCF7 breast) was 27.4 µM and the GI50 (EKVX NSCLC) was 4.15 µM. The TGI (EKVX NSCLC) was 25.5 µM, the GI50 (NCI-H23 lung) was 5.73 µM and the TGI (NCI-H23 lung) was 22.6 µM. It also gave a GI50 (SW-620 colon) of 7.34 µM, a TGI (SW-620 colon) of 23.7 µM and a GI50 (SF-295 CNS) of 2.96 µM. The TGI (SF-295 CNS) was 13.9 µM, the GI50 (SK-MEL-5 melanoma) was 3.23 µM and the TGI (SK-MEL-5 melanoma) was 14.4 µM. The GI50 (UO-31 renal) was 8.88 µM and the TGI (UO-31 renal) was 21.2 µM.
O=C(O)CCc1nc(-c2ccccc2-n2cccc2)no1 was tested, and the TGI (HOP-62 NSCLC) was greater than 100 µM, the TGI (SN12C renal) was greater than 100 µM and the TGI (RPMI-8226 leukemia) was greater than 100 µM. For the same molecule, the TGI (MCF7 breast) was greater than 100 µM, the TGI (EKVX NSCLC) was greater than 100 µM and the TGI (NCI-H23 lung) was greater than 100 µM. The TGI (SW-620 colon) was greater than 100 µM, the TGI (SF-295 CNS) was greater than 100 µM and the TGI (SK-MEL-5 melanoma) was greater than 100 µM. The TGI (UO-31 renal) was greater than 100 µM.
For O=Cc1ccc(N2CCN(c3ccc(C=O)cc3)CC2)cc1, the GI50 (HOP-62 NSCLC) was greater than 100 µM, the TGI (HOP-62 NSCLC) was greater than 100 µM and the GI50 (SN12C renal) was greater than 100 µM. It also gave a TGI (SN12C renal) greater than 100 µM, a GI50 (RPMI-8226 leukemia) greater than 100 µM and a TGI (RPMI-8226 leukemia) greater than 100 µM. The GI50 (MCF7 breast) was 97.7 µM, the TGI (MCF7 breast) was greater than 100 µM and the GI50 (EKVX NSCLC) was greater than 100 µM. It also gave a TGI (EKVX NSCLC) greater than 100 µM, a GI50 (NCI-H23 lung) greater than 100 µM and a TGI (NCI-H23 lung) greater than 100 µM. For the same molecule, the GI50 (SW-620 colon) was greater than 100 µM, the TGI (SW-620 colon) was greater than 100 µM and the GI50 (SF-295 CNS) was greater than 100 µM. It also gave a TGI (SF-295 CNS) greater than 100 µM, a GI50 (SK-MEL-5 melanoma) greater than 100 µM and a TGI (SK-MEL-5 melanoma) greater than 100 µM. The GI50 (UO-31 renal) was greater than 100 µM and the TGI (UO-31 renal) was greater than 100 µM.
Molecule CCCOC(=O)C1C2CCC(O2)C1C(=O)O (stereo not given) has a TGI (HOP-62 NSCLC) greater than 100 µM, a TGI (SN12C renal) greater than 100 µM and a TGI (RPMI-8226 leukemia) greater than 100 µM. It also gave a TGI (MCF7 breast) greater than 100 µM, a TGI (EKVX NSCLC) greater than 100 µM and a TGI (NCI-H23 lung) greater than 100 µM. For the same molecule, the TGI (SW-620 colon) was greater than 100 µM, the TGI (SF-295 CNS) was greater than 100 µM and the TGI (SK-MEL-5 melanoma) was greater than 100 µM. It also gave a TGI (UO-31 renal) greater than 100 µM.
Nc1ccn(C2OC(C(OC3OC(CO)C(O)C(N)C3O)C(O)C(O)C(O)C(O)CO)C(N)C(O)C2O)c(=O)n1 (stereo not given) gave a TGI (HOP-62 NSCLC) greater than 100 µM, a TGI (SN12C renal) greater than 100 µM and a TGI (RPMI-8226 leukemia) greater than 100 µM. It also gave a TGI (MCF7 breast) greater than 100 µM, a TGI (EKVX NSCLC) greater than 100 µM and a TGI (NCI-H23 lung) greater than 100 µM. For the same molecule, the TGI (SW-620 colon) was greater than 100 µM, the TGI (SF-295 CNS) was 58 µM and the TGI (SK-MEL-5 melanoma) was greater than 100 µM. For the same molecule, the TGI (UO-31 renal) was greater than 100 µM.
Molecule O=C1/C(=C\c2ccccc2)C2OCC=C3CN4CCC56c7ccccc7N1C5C2C3CC46 (stereo not given) has a GI50 (HOP-62 NSCLC) of 54.3 µM, a TGI (HOP-62 NSCLC) greater than 100 µM and a GI50 (SN12C renal) of 26.2 µM. It also gave a TGI (SN12C renal) greater than 100 µM, a GI50 (RPMI-8226 leukemia) of 5.54 µM and a TGI (RPMI-8226 leukemia) greater than 100 µM. The GI50 (MCF7 breast) was 5.2 µM, the TGI (MCF7 breast) was greater than 100 µM and the GI50 (EKVX NSCLC) was 70.5 µM. For the same molecule, the TGI (EKVX NSCLC) was greater than 100 µM, the GI50 (NCI-H23 lung) was greater than 100 µM and the TGI (NCI-H23 lung) was greater than 100 µM. The GI50 (SW-620 colon) was greater than 100 µM, the TGI (SW-620 colon) was greater than 100 µM and the GI50 (SF-295 CNS) was 3.69 µM. For the same molecule, the TGI (SF-295 CNS) was 24.7 µM, the GI50 (SK-MEL-5 melanoma) was 4.84 µM and the TGI (SK-MEL-5 melanoma) was 17.4 µM. The GI50 (UO-31 renal) was 4.04 µM and the TGI (UO-31 renal) was greater than 100 µM.
For O=C(Nc1cccc(C(F)(F)F)c1)c1cc2ccccc2cc1O, the GI50 (HOP-62 NSCLC) was 2.61 µM, the TGI (HOP-62 NSCLC) was 11.8 µM and the GI50 (SN12C renal) was 1.49 µM. It also gave a TGI (SN12C renal) greater than 100 µM, a GI50 (RPMI-8226 leukemia) of 0.354 µM and a TGI (RPMI-8226 leukemia) of 2.15 µM. For the same molecule, the GI50 (MCF7 breast) was 0.708 µM, the TGI (MCF7 breast) was greater than 43.6 µM and the GI50 (EKVX NSCLC) was 1.87 µM. It also gave a TGI (EKVX NSCLC) of 7.69 µM, a GI50 (NCI-H23 lung) of 0.67 µM and a TGI (NCI-H23 lung) of 8.14 µM. It also gave a GI50 (SW-620 colon) of 2.51 µM, a TGI (SW-620 colon) greater than 100 µM and a GI50 (SF-295 CNS) of 2.86 µM. It also gave a TGI (SF-295 CNS) of 8.68 µM, a GI50 (SK-MEL-5 melanoma) of 0.987 µM and a TGI (SK-MEL-5 melanoma) of 3.5 µM. For the same molecule, the GI50 (UO-31 renal) was 1.12 µM and the TGI (UO-31 renal) was greater than 22.1 µM.
Work on CNC(c1ccncc1)C(NC)c1ccncc1 (stereo not given) yielded a TGI (HOP-62 NSCLC) greater than 100 µM, a TGI (SN12C renal) greater than 100 µM and a TGI (RPMI-8226 leukemia) greater than 100 µM. For the same molecule, the TGI (MCF7 breast) was greater than 100 µM, the TGI (EKVX NSCLC) was greater than 100 µM and the TGI (NCI-H23 lung) was greater than 100 µM. For the same molecule, the TGI (SW-620 colon) was greater than 100 µM, the TGI (SF-295 CNS) was greater than 100 µM and the TGI (SK-MEL-5 melanoma) was greater than 100 µM. It also gave a TGI (UO-31 renal) greater than 100 µM.
For Cn1cc(-c2nc(N[C@@H]3CCCC[C@@H]3N)c(F)c3c2C(=O)NC3)cn1, the GI50 (HOP-62 NSCLC) was 3.37 µM and 3.32 µM, the TGI (HOP-62 NSCLC) was 29.7 µM and 30.5 µM and the GI50 (SN12C renal) was 3.61 µM and 3.8 µM. For the same molecule, the TGI (SN12C renal) was greater than 100 µM, the GI50 (RPMI-8226 leukemia) was 26.2 µM and 29.1 µM and the TGI (RPMI-8226 leukemia) was greater than 100 µM. The GI50 (MCF7 breast) was 5.81 µM and 6.21 µM, the TGI (MCF7 breast) was greater than 100 µM and the GI50 (EKVX NSCLC) was 14.3 µM and 20.1 µM. The TGI (EKVX NSCLC) was greater than 100 µM, the GI50 (NCI-H23 lung) was 5.58 µM and 5.83 µM and the TGI (NCI-H23 lung) was 48.7 µM and > 63.7 µM. The GI50 (SW-620 colon) was 4.26 µM and 5 µM, the TGI (SW-620 colon) was greater than 100 µM and the GI50 (SF-295 CNS) was 3.95 µM and 3.5 µM. The TGI (SF-295 CNS) was greater than 77.2 µM, the GI50 (SK-MEL-5 melanoma) was 29.2 µM and 22.6 µM and the TGI (SK-MEL-5 melanoma) was greater than 100 µM. For the same molecule, the GI50 (UO-31 renal) was 5.74 µM and 7.49 µM and the TGI (UO-31 renal) was 19.7 µM and 21.1 µM.
With COc1cccc(NC2=C(Cl)C(=O)N(Cc3ccc(Cl)cc3)C2=O)c1 the GI50 (HOP-62 NSCLC) was 2.4 µM, the TGI (HOP-62 NSCLC) was 12.3 µM and the GI50 (SN12C renal) was 2.61 µM. For the same molecule, the TGI (SN12C renal) was 12.9 µM, the GI50 (RPMI-8226 leukemia) was 0.985 µM and the TGI (RPMI-8226 leukemia) was greater than 20.3 µM. It also gave a GI50 (MCF7 breast) of 2.09 µM, a TGI (MCF7 breast) greater than 38.8 µM and a GI50 (EKVX NSCLC) of 12.5 µM. It also gave a TGI (EKVX NSCLC) of 38.8 µM, a GI50 (NCI-H23 lung) of 2.84 µM and a TGI (NCI-H23 lung) of 9.81 µM. It also gave a GI50 (SW-620 colon) of 0.847 µM, a TGI (SW-620 colon) of 14.7 µM and a GI50 (SF-295 CNS) of 2.35 µM. The TGI (SF-295 CNS) was 12.8 µM, the GI50 (SK-MEL-5 melanoma) was 1.21 µM and the TGI (SK-MEL-5 melanoma) was 6.09 µM. It also gave a GI50 (UO-31 renal) of 7.88 µM and a TGI (UO-31 renal) of 31.7 µM.
